System: 299254-011-R-J1-PDC complex spheroid viability
Assay: Anticancer human tumor 299254-011-R-J1-PDC patient-derived melanoma cell line growth inhibition [POLQ]
Settings: for IC50: curve of first compound; for viability, T/C: stronger effect = lower value
Protocol: Multicellular complex tumor spheroid response to Polymerase (POL) inhibitors (novobiocin, ART-558, RP6685) in combination with a variety of drugs and investigational agents in selected tumor cell lines
The POL inhibitors (novobiocin, ART-558, and RP6685) were evaluated both individually and in combination with standard of care and investigational anticancer small molecules within a complex spheroid model of solid tumors. . Complex spheroids include a stromal component modeled by human endothelial cells (HUVEC) and fibroblasts modeled by human mesenchymal stem cells (MSCs). The concentration ranges selected for each drug and investigational agent were based upon clinically achievable concentrations if the clinical Cmax of the agent was known.
Compounds. The drugs and investigational agents: novobiocin (NSC847541), ART-558 (NSC835418), RP-6685 (NSC848927), peposertib (NSC802822), ceralasertib (NSC780249), elimusertib (NSC800525), camonsertib (NSC841442), AZD-1390 (NSC803789), olaparib (NSC753686), talazoparib (NSC767125), rucaparib (NSC756644), sotorasib (NSC818433), MRTX-1133 (NSC836407), SN-38 (NSC673596), topotecan (NSC609699), epotoside (NSC141540), doxorubicin (NSC123127), gemcitabine (NSC613327), 5-fluorouracil (NSC19893), paclitaxel (NSC125973), vemurafenib (NSC761431), MSA-2 (NSC828583), SN-011 (NSC837082), adavosertib (NSC754352), prexasertib (NSC758257), carboplatin (NSC241240) and oxaliplatin (NSC266046), were obtained from the National Cancer Institute (NCI) Developmental Therapeutics Program Chemical Repository (21). The FDA-approved anticancer drug set is available from the Developmental Therapeutics Program at https://dtp.cancer.gov/organization/dscb/obtaining/. […] The stock solutions were prepared in dimethyl sulfoxide (DMSO, Sigma-Aldrich, St. Louis, MO, cat. D2650), except for the platinum compounds which were prepared in saline (Quality Biological, Gaithersburg, MD, cat. 114-055-101), at 800-fold the tested concentration and stored at -70 degrees C prior to their use. All drugs and investigational agents were tested over a range starting from a high concentration at or near the clinical Cmax and decreasing in half-log increments. If the clinical Cmax for an agent had not been determined, the highest concentration tested was 10 microM, except for SN-38, which was tested at a high concentration of 1 microM.
Cell Culture. All cells were maintained in an incubator at 37 degrees C and 5% CO2 with 95% humidity. The PDC lines were cultured according to standard operating procedures established by the NCI PDMR (https://pdmr.cancer.gov). Table 3 of the manuscript, lists the cell lines along with the number of the three cell types plated to form the mct-spheroids and media for tumor cell growth. After thawing, all PDC lines, except 997537-175-T-J1-PDC and 415267-285-R-J2-PDC, were cultured in Matrigel-coated flasks prepared with a working solution of 1X Ham's F-12 nutrient mix, without supplementation (Thermo Fisher Scientific, cat. 11765054), 100 U/mL penicillin-streptomycin (Thermo Fisher Scientific, cat. 15140122), and 2.5% Matrigel (Corning Inc., Corning, NY, cat. 354248) for the first three passages. The two PDC lines 997537-175-T-J1-PDC and 415267-285-R-J2-PDC were cultured on uncoated flasks. The 857933-349-R-J2-PDC line was cultured in 6C/Colon 1B media containing advanced DMEM/F-12 (Thermo Fisher Scientific, cat. 12634028), 10 mM HEPES (Thermo Fisher Scientific, cat. 15630080), 1X GlutaMAX supplement (Thermo Fisher Scientific, cat. 35050061), 0.1 mg/mL primocin (InvivoGen, San Diego, CA, cat. ant-pm-2), 10% defined fetal bovine serum, heat inactivated (HyClone Laboratories Inc., Logan, UT, cat. SH30070.03HI), 50% L-WRN conditioned media (ATCC, cat. CRL-3276), 1.25 mM N-Acetyl-L-cysteine (Sigma-Aldrich, cat. A9165), 10 mM nicotinamide (Sigma-Aldrich, cat. N0636), 1X B-27 supplement (Thermo Fisher Scientific, cat. 17504044), 1X N-2 supplement (Thermo Fisher Scientific, cat. […]

[1] = second compound 0.0316 µM, first compound 0.0316 µM
[2] = second compound 0.0316 µM, first compound 0.1 µM
[3] = second compound 0.0316 µM, first compound 0.316 µM
[4] = second compound 0.0316 µM, first compound 1 µM
[5] = second compound 0.0316 µM, first compound 3.16 µM
[6] = second compound 0.0316 µM, first compound 10 µM
[7] = second compound 0.1 µM, first compound 0.0316 µM
[8] = second compound 0.1 µM, first compound 0.1 µM
[9] = second compound 0.1 µM, first compound 0.316 µM
[10] = second compound 0.1 µM, first compound 1 µM
[11] = second compound 0.1 µM, first compound 3.16 µM
[12] = second compound 0.1 µM, first compound 10 µM
[13] = second compound 0.316 µM, first compound 0.0316 µM
[14] = second compound 0.316 µM, first compound 0.1 µM
[15] = second compound 0.316 µM, first compound 0.316 µM
[16] = second compound 0.316 µM, first compound 1 µM
[17] = second compound 0.316 µM, first compound 3.16 µM
[18] = second compound 0.316 µM, first compound 10 µM
[19] = second compound 1 µM, first compound 0.0316 µM
[20] = second compound 1 µM, first compound 0.1 µM
[21] = second compound 1 µM, first compound 0.316 µM
[22] = second compound 1 µM, first compound 1 µM
[23] = second compound 1 µM, first compound 3.16 µM
[24] = second compound 1 µM, first compound 10 µM
[25] = second compound 3.16 µM, first compound 0.0316 µM
[26] = second compound 3.16 µM, first compound 0.1 µM
[27] = second compound 3.16 µM, first compound 0.316 µM
[28] = second compound 3.16 µM, first compound 1 µM
[29] = second compound 3.16 µM, first compound 3.16 µM
[30] = second compound 3.16 µM, first compound 10 µM
[31] = second compound 10 µM, first compound 0.0316 µM
[32] = second compound 10 µM, first compound 0.1 µM
[33] = second compound 10 µM, first compound 0.316 µM
[34] = second compound 10 µM, first compound 1 µM
[35] = second compound 10 µM, first compound 3.16 µM
[36] = second compound 10 µM, first compound 10 µM
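Further: spheroids exposed to drugs for one week before measurement.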
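Wherever viability, T/C is given: percent viability relative to DMSO vehicle control taken as 100%.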

## COc1cc(C2c3cc4c(cc3C(OC3OC5COC(C)OC5C(O)C3O)C3COC(=O)C23)OCO4)cc(OC)c1O (centres undefined) + Cc1cccc(N(C)C(=O)C2C(O)CCN2c2nc(C)cc(C(F)(F)F)c2C#N)c1
Second compound 0.0316 µM
  IC50: 9.54 µM
Second compound 0.1 µM
  IC50: > 10 µM
Second compound 0.316 µM
  IC50: > 10 µM
Second compound 1 µM
  IC50: > 10 µM
Second compound 3.16 µM
  IC50: > 10 µM
Second compound 10 µM
  IC50: > 10 µM
[1]
  viability, T/C: 87.6%
[2]
  viability, T/C: 89.2%
[3]
  viability, T/C: 102%
[4]
  viability, T/C: 86.8%
[5]
  viability, T/C: 75.6%
[6]
  viability, T/C: 48.9%
[7]
  viability, T/C: 98%
[8]
  viability, T/C: 91.9%
[9]
  viability, T/C: 107%
[10]
  viability, T/C: 87.2%
[11]
  viability, T/C: 68%
[12]
  viability, T/C: 54.8%
[13]
  viability, T/C: 94.6%
[14]
  viability, T/C: 102%
[15]
  viability, T/C: 101%
[16]
  viability, T/C: 99.5%
[17]
  viability, T/C: 70%
[18]
  viability, T/C: 59.5%
[19]
  viability, T/C: 107%
[20]
  viability, T/C: 93.1%
[21]
  viability, T/C: 91.6%
[22]
  viability, T/C: 79.2%
[23]
  viability, T/C: 76%
[24]
  viability, T/C: 58%
[25]
  viability, T/C: 98.5%
[26]
  viability, T/C: 86.5%
[27]
  viability, T/C: 88%
[28]
  viability, T/C: 97.3%
[29]
  viability, T/C: 74.8%
[30]
  viability, T/C: 53.9%
[31]
  viability, T/C: 84.5%
[32]
  viability, T/C: 86.7%
[33]
  viability, T/C: 86.1%
[34]
  viability, T/C: 82.8%
[35]
  viability, T/C: 60.2%
[36]
  viability, T/C: 59.2%

## COc1cc2cc(C(=O)CCC(=O)O)sc2cc1OC + Cc1cccc(N(C)C(=O)C2C(O)CCN2c2nc(C)cc(C(F)(F)F)c2C#N)c1
Second compound 0.0316 µM
  IC50: > 10 µM
Second compound 0.1 µM
  IC50: > 10 µM
Second compound 0.316 µM
  IC50: > 10 µM
Second compound 1 µM
  IC50: > 10 µM
Second compound 3.16 µM
  IC50: > 10 µM
Second compound 10 µM
  IC50: > 10 µM
[1]
  viability, T/C: 105%
[2]
  viability, T/C: 102%
[3]
  viability, T/C: 96.3%
[4]
  viability, T/C: 113%
[5]
  viability, T/C: 111%
[6]
  viability, T/C: 109%
[7]
  viability, T/C: 98.6%
[8]
  viability, T/C: 96%
[9]
  viability, T/C: 104%
[10]
  viability, T/C: 101%
[11]
  viability, T/C: 106%
[12]
  viability, T/C: 101%
[13]
  viability, T/C: 102%
[14]
  viability, T/C: 115%
[15]
  viability, T/C: 99.9%
[16]
  viability, T/C: 110%
[17]
  viability, T/C: 113%
[18]
  viability, T/C: 104%
[19]
  viability, T/C: 105%
[20]
  viability, T/C: 109%
[21]
  viability, T/C: 105%
[22]
  viability, T/C: 112%
[23]
  viability, T/C: 110%
[24]
  viability, T/C: 103%
[25]
  viability, T/C: 105%
[26]
  viability, T/C: 116%
[27]
  viability, T/C: 109%
[28]
  viability, T/C: 95%
[29]
  viability, T/C: 96.1%
[30]
  viability, T/C: 97.4%
[31]
  viability, T/C: 102%
[32]
  viability, T/C: 95.5%
[33]
  viability, T/C: 103%
[34]
  viability, T/C: 102%
[35]
  viability, T/C: 102%
[36]
  viability, T/C: 101%

Source: PubChem BioAssay AID1963849 (Molecular Pharmacology Branch, DTP, NCI, 2024)
